Details: for log10 BCF / log10 biotransformation half-life (days): fish

Row | SMILES | melting point [°C] | boiling point [°C] | also measured
1 | O=C(O)C1=CC(=C(c2ccc(O)c(C(=O)O)c2)c2ccc(O)c(C(=O)O)c2)C=CC1=O | 300 | – | –
2 | O=C1c2ccccc2C(=O)N1c1ccccc1 | 210 | – | –
3 | O=Cc1cccc(C=O)c1 | 89.5 | 246 | –
4 | C=C(C)C(=O)OCCCCCCCCCCCCCCCCCC | – | – | ready biodegradability: readily biodegradable
5 | CC(Cc1ccccc1)NC(C#N)c1ccccc1 (centres undefined) | 86 | – | –
6 | O=C(NCC1CCCCN1)c1cc(OCC(F)(F)F)ccc1OCC(F)(F)F (centres undefined) | 146 | – | –
7 | CC(C)OC(=O)OC(C)C | – | 147 | –
8 | CCNS(=O)(=O)C(F)(F)C(F)(F)C(F)(F)C(F)(F)C(F)(F)C(F)(F)C(F)(F)C(F)(F)F | 96 | 196 | log10 vapour pressure (mmHg): -6.37
9 | CCN(CC)C(=S)[S-].[Na+] | 98 | – | –
10 | NCCC(=O)O | – | – | ready biodegradability: readily biodegradable
11 | Cc1nc(C(F)(F)F)c(C(O)=Nc2c(Br)cc(OC(F)(F)F)cc2Br)s1 | 178 | – | –
12 | CCCCCOC(=O)c1ccccc1O | – | 270 | –
13 | C=C(C)CCO | – | 132 | log10 vapour pressure (mmHg): 0.551
14 | c1ccc2c(c1)ccc1nc3ccc4ccccc4c3cc12 | 216 | – | –
15 | Oc1c(O)c(Br)c(Br)c(Br)c1Br | 191 | – | –
16 | CCCC[C@@H](O)CC | – | – | log10 vapour pressure (mmHg): -0.131
17 | O=C1c2ccccc2C(=O)c2c1cc(O)c(O)c2O | 313 | – | –
18 | O=C1NN(c2ccccc2)C(=O)C1c1ccccc1 (centres undefined) | 234 | – | –
19 | O=C(O)c1ccccc1Cc1ccccc1 | 118 | – | –
20 | CCCCOC(=O)C(Cl)Cl | – | 194 | –
21 | Cc1ccc(CC(=O)O)cc1 | 93 | 265 | –
22 | c1ccc2ocnc2c1 | 31 | 182 | –
23 | CN(C1CCCCC1)C1CCCCC1 | – | 265 | –
24 | Clc1cccc2c1Oc1c(Cl)c(Cl)c(Cl)c(Cl)c1O2 | 220 | – | log10 vapour pressure (mmHg): -9.25
25 | CCCCCCC(C)NC(C)CCCCCC (centres undefined) | – | 283 | –
26 | Nc1ccc(Br)cc1[N+](=O)[O-] | 112 | – | –

Row | SMILES | melting point [°C] | boiling point [°C] | also measured
27 | COCC(C)=O | – | 116 | –
28 | COc1cc(OC)nc(NC(=O)NS(=O)(=O)c2ncccc2C(=O)N(C)C)n1 | 142 | – | log10 Koc (L/kg): 1.48
29 | C#CCOc1cc(-n2nc3n(c2=O)CCCC3)c(Cl)cc1Cl | 168 | – | log10 vapour pressure (mmHg): -11.1
30 | OB(c1ccccc1)c1ccccc1 | 57.5 | – | –
31 | O=C[O-].[NH4+] | 116 | – | –
32 | c1ccc(-c2oc(-c3ccccc3)c(-c3ccccc3)c2-c2ccccc2)cc1 | 175 | – | –
33 | Nc1ccnc2ccccc12 | 155 | – | –
34 | CCCCCCCC(=O)Cl | -63 | 196 | –
35 | FC(F)(F)C(Cl)Cl | -107 | 27 | log10 Henry constant (atm·m³/mol): -1.59; log10 vapour pressure (mmHg): 2.86; ready biodegradability: not readily biodegradable
36 | CN1[C@@H]2CCC[C@H]1CC2 | – | 166 | –
37 | Fc1c(F)c(F)c2c(F)c(F)c(F)c(F)c2c1F | 87.5 | 209 | –
38 | BrC(Br)C(Br)(Br)Br | 56.5 | – | –
39 | NC(=O)OCC(Cl)(Cl)Cl | 64 | – | –
40 | CCC(N)=O | 81.3 | 213 | log10 vapour pressure (mmHg): -1.42
41 | COCc1ccccc1 | -52.6 | 170 | log10 vapour pressure (mmHg): 0.22
42 | C=C[Si](C)(C)C | – | 55 | –
43 | CN | – | -6.3 | log10 Henry constant (atm·m³/mol): -4.95; log10 Koa: 1.9; log10 vapour pressure (mmHg): 3.42; ready biodegradability: readily biodegradable
44 | Nc1ccc2c(c1)C(=O)c1ccccc1C2=O | 304 | – | log10 vapour pressure (mmHg): -10.3; ready biodegradability: not readily biodegradable; log10 BCF: 1.51; log10 biotransformation half-life (days): -1.06
45 | O=[N+]([O-])c1ccc(Cl)c([N+](=O)[O-])c1 | 53 | 315 | log10 vapour pressure (mmHg): -4.07; ready biodegradability: not readily biodegradable
46 | BrC(c1ccccc1)c1ccccc1 | 45 | – | –
47 | O=C1OC(=O)c2ccccc21 | 131 | 295 | log10 Koc (L/kg): 1.56; log10 vapour pressure (mmHg): -3.29; ready biodegradability: readily biodegradable
48 | FC(Br)C(F)(F)Br (centres undefined) | – | 76 | –
49 | CC(C)C(O)(c1ccc(OC(F)(F)F)cc1)c1cncnc1 (centres undefined) | 95 | 264 | log10 vapour pressure (mmHg): -6.44
50 | CC(C1CC1)C(O)(Cn1cncn1)c1ccc(Cl)cc1 (centres undefined) | 108 | – | log10 vapour pressure (mmHg): -6.59
51 | CCOC(=O)C(Br)CBr (centres undefined) | – | 214 | –
52 | c1cc2ccc3ccc4ccc5cccc6c(c1)c2c3c4c56 | 278 | – | log10 Henry constant (atm·m³/mol): -6.48; log10 Koc (L/kg): 4.61; log10 biodegradation half-life (days): 2.75; log10 vapour pressure (mmHg): -10

Row | SMILES | melting point [°C] | boiling point [°C] | also measured
53 | Clc1ccccc1C(c1ccccc1)(c1ccccc1)n1ccnc1 | 148 | – | –
54 | CCCCCCc1ccccc1 | -61 | 226 | log10 vapour pressure (mmHg): -0.919; ready biodegradability: readily biodegradable
55 | C[C@H]1CC[C@@]2(O)C(C)(C)[C@@H]3CC[C@@]2(C)[C@H]1C3 | 56 | – | –
56 | O=C(O)CCSCCC(=O)O | 129 | – | ready biodegradability: readily biodegradable
57 | OCCOCCO | -10.4 | 246 | log10 vapour pressure (mmHg): -2.24; ready biodegradability: readily biodegradable
58 | CCN(CCO)CCn1c(Cc2ccccc2)nc2c1c(=O)n(C)c(=O)n2C | 80 | – | –
59 | CCCOC(=O)c1ccoc1 | – | 211 | –
60 | C[C@@H]1C[C@H](C)CC(C)(C)C1 | – | 152 | –
61 | O=[N+]([O-])c1cccc(S(=O)(=O)O)c1 | – | – | ready biodegradability: not readily biodegradable
62 | O=C(O)C1CCCCCC1 | – | 259 | –
63 | OCCCCC(F)(F)F | – | 148 | –
64 | Cc1nc2ccccc2[nH]1 | 176 | – | –
65 | COS(C)(=O)=O | 20 | 203 | –
66 | CC(C)CC(=O)C(C)C | – | 148 | –
67 | NC(=O)CN1CCCC1=O | 152 | – | –
68 | C=CCCBr | – | 98.5 | –
69 | Cc1ccc(C=O)cc1 | -6 | 204 | log10 vapour pressure (mmHg): -0.602; ready biodegradability: readily biodegradable
70 | Cc1ccccc1 | -94.9 | 111 | log10 Henry constant (atm·m³/mol): -2.18; log10 biodegradation half-life (days): 0.301; log10 vapour pressure (mmHg): 1.45; ready biodegradability: readily biodegradable; log10 BCF: 0.92
71 | Clc1ccc(-c2c(Cl)c(Cl)cc(Cl)c2Cl)c(Cl)c1Cl | – | – | log10 biotransformation half-life (days): 2.5
72 | CC(C)(C)c1ccccn1 | -33 | 170 | –
73 | C/C=C/C/C=C/CCC(=O)[C@H]1O[C@H]1C(N)=O | 93.5 | – | –
74 | Brc1ccc(Br)c(Br)c1 | 44.5 | 275 | log10 BCF: 3.63
75 | O=C(O)c1ccsc1 | 138 | – | –
76 | CNC(=O)O/N=C1\[C@@H](Cl)[C@@H]2C[C@H](C#N)[C@H]1C2 | 144 | – | –
77 | Cc1cccc([N+](=O)[O-])c1N | 96 | – | –
78 | CCOC(=O)CCC(C)C | – | 163 | –

Row | SMILES | melting point [°C] | boiling point [°C] | also measured
79 | CCCCCCCCCCCC(=O)OCc1ccccc1 | 8.5 | – | –
80 | CCc1ccccc1CC | -31.2 | 184 | log10 vapour pressure (mmHg): 0.0212; ready biodegradability: not readily biodegradable
81 | O=C(NC(=O)c1c(F)cccc1F)Nc1cc(Cl)c(OC(F)(F)C(F)C(F)(F)F)cc1Cl (centres undefined) | 166 | – | –
82 | NCCOP(=O)(O)O | 242 | – | –
83 | Cc1cc(C)nc(N)n1 | 152 | – | –
84 | CCC(=O)c1cccc(OC)c1 | – | 259 | –
85 | CC(=O)Cc1ccco1 | 29 | 180 | –
86 | C=CCOC(=O)C(=O)OCC=C | – | 217 | –
87 | CC1CCCCC1NC(=O)Nc1ccccc1 (centres undefined) | 136 | – | log10 Koc (L/kg): 2.31; log10 vapour pressure (mmHg): -8.4
88 | FC(F)(F)c1ccc(Br)cc1 | – | 160 | –
89 | CCCCCCCCCCCBr | -9 | – | log10 vapour pressure (mmHg): -1.92
90 | C=COCCOCCOC=C | – | 198 | log10 vapour pressure (mmHg): -1.64
91 | C[C@@H]1N[C@@H]2CCCCCCCC(=O)O[C@H]3CC[C@@H](CCCCCCCC(=O)O[C@H]1CC2)N[C@H]3C | 121 | – | –
92 | CC(Cc1ccccc1)c1ccccc1 (centres undefined) | 52 | 280 | –
93 | CC1(C)CCCCC1O (centres undefined) | 8 | 177 | –
94 | COC(=O)C1(S(=O)(=O)c2ccc(Br)cc2)CCCC1 | 104 | – | –
95 | Cc1cc2ccccc2[nH]1 | 61 | 272 | –
96 | CC(=O)O[C@]1(C(C)=O)CC[C@H]2[C@@H]3C=C(C)C4=CC(=O)CC[C@]4(C)[C@H]3CC[C@@]21C | 214 | – | –
97 | COc1nc2c(c(=O)n(C)c(=O)n2C)n1C | 176 | – | –
98 | CCCCC1(CC)C(=O)NC(=O)NC1=O | 128 | – | –
99 | O=Cc1c(Cl)cccc1Cl | 71.5 | – | ready biodegradability: not readily biodegradable
100 | C=COC(=O)CCCCC | – | – | ready biodegradability: readily biodegradable
101 | CN(C)CCc1c[nH]c2cccc(O)c12 | 174 | – | –
102 | CSc1ncnc2c1ncn2[C@@H]1O[C@H](CO)[C@@H](O)[C@H]1O | 164 | – | –
103 | CCOCn1c(-c2ccc(Cl)cc2)c(C#N)c(Br)c1C(F)(F)F | 100 | – | –
104 | O=C(CO)[C@@H](O)[C@@H](O)[C@H](O)[C@H](O)CO | 151 | – | –

Row | SMILES | melting point [°C] | boiling point [°C] | also measured
105 | CC(=O)N1CCN(c2ccc(OC[C@H]3CO[C@](Cn4ccnc4)(c4ccc(Cl)cc4Cl)O3)cc2)CC1 | 146 | – | –
106 | Cc1ccccc1CCl | – | 198 | –
107 | C(=C\c1ccccc1)/c1ccccc1 | – | 307 | log10 Koa: 7.48; log10 vapour pressure (mmHg): -2.61
108 | CCCC(=O)C(C)CC (centres undefined) | – | 154 | –
109 | c1ccc(N=NNc2ccccc2)cc1 | 98 | – | log10 vapour pressure (mmHg): -4.72
110 | CCCCOc1ccc(OCCCC)cc1 | 45.5 | – | –
111 | OC[C@H]1O[C@H](O[C@]2(CCl)O[C@H](CCl)[C@@H](O)[C@@H]2O)[C@H](O)[C@@H](O)[C@H]1Cl | 130 | – | –
112 | O=C(O)Cc1ccc(F)cc1 | 86 | – | –
113 | Clc1cc(Cl)cc(-c2ccc(Cl)c(Cl)c2)c1 | – | – | log10 Henry constant (atm·m³/mol): -4.05
114 | O=C=Nc1cccc2c(N=C=O)cccc12 | 130 | 330 | log10 vapour pressure (mmHg): -4.47
115 | CC(C)(C#N)O[C@@H]1O[C@H](CO)[C@@H](O)[C@H](O)[C@H]1O | 145 | – | –
116 | O=C(Cn1ccnc1[N+](=O)[O-])NCc1ccccc1 | 189 | – | –
117 | Cc1ncc([N+](=O)[O-])n1CC(C)O (centres undefined) | 76 | – | –
118 | CC(C)(C)NSc1nc2ccccc2s1 | – | – | log10 vapour pressure (mmHg): -6.34
119 | C=Cc1cc(C)ccc1C | -35 | – | log10 vapour pressure (mmHg): 0
120 | O=C1c2ccccc2-c2ccccc21 | 84 | 342 | –
121 | CCOc1ccccc1C(N)=O | 133 | – | –
122 | Cc1cc2cc3cc(C)c(C)cc3cc2cc1C | – | – | log10 biotransformation half-life (days): 0.59
123 | CC(C)=CC(C)C | -128 | 83.4 | –
124 | FC(F)C(F)(F)Cl | -117 | -10 | –
125 | Cc1cc(Cl)ccc1Cl | 5 | 200 | –
126 | Cc1cc(Cl)cc2c1C(=O)/C(=C1/Sc3cc(Cl)cc(C)c3C1=O)S2 | – | – | log10 vapour pressure (mmHg): -13.5

— the OPERA property sets (Mansouri et al. 2018)
